In the assay the target is cruzain (Trypanosoma cruzi, UniProt P25779). Briefly: fluorimetric Z-FR-AMC cleavage, initial rates. The assay is classed as biochemical.
Chain of cruzain (P25779 123-337): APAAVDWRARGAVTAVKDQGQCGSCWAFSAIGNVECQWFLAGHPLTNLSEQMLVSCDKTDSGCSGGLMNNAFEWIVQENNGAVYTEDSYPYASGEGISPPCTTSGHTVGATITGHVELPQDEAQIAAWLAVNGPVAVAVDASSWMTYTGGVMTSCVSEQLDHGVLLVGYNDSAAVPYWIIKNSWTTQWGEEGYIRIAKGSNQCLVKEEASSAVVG

The term IC50 denotes the concentration at which inhibition is half-maximal. A low value points to inhibition by little substance. Compound `CC(C)C[C@H](NC(=O)[C@H]1O[C@@H]1C(=O)O)C(=O)NCCCCN=C(N)N` [E-64, trans-Epoxysuccinyl-L-leucylamido(4-guanidino)butane, reference compound] registered an IC50 of 29.7 ± 9.16 nM.

Values taken from publication doi:10.1101/2021.12.22.473926v1 (biorxiv, 2021).
